Legend:
[1] = molecular target: T1, Liver carboxylesterase 1 (Homo sapiens, UniProt P23141); experiment: Prodrug conversion assessed as CES1 (unknown origin) mediated aztreonam release in 2.5% acetonitrile in 0.05M citrate buffer at 0.5 mg/ml at pH 4.7 at 37degC after 2 mins in presence of 150 units/ml of CES1 enzyme by HPLC analysis; assay type: ADME; conditions: pH 4.7, 2 min
T1 sequence (P23141 whole entry): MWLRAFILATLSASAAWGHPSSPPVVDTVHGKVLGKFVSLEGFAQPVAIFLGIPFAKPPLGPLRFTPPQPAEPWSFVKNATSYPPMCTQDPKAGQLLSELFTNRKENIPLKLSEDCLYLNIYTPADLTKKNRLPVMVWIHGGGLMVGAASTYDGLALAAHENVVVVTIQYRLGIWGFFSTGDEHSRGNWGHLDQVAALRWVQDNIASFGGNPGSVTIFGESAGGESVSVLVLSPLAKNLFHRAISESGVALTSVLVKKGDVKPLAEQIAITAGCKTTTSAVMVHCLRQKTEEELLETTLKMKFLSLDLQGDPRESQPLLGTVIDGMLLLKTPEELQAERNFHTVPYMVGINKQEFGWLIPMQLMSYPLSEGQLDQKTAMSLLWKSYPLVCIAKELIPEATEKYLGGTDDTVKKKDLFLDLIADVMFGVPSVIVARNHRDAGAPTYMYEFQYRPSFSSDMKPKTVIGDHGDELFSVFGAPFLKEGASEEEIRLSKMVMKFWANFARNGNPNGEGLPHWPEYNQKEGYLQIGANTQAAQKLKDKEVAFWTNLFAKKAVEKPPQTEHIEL

[2] = molecular target: T1, Liver carboxylesterase 1; experiment: Prodrug conversion assessed as CES1 (unknown origin) mediated aztreonam release in 2.5% acetonitrile in 0.05M citrate buffer at 0.5 mg/ml at pH 4.7 at 37degC after 5 mins in presence of 150 units/ml of CES1 enzyme by HPLC analysis; assay type: ADME; conditions: pH 4.7, 5 min
[3] = molecular target: T1, Liver carboxylesterase 1; experiment: Prodrug conversion assessed as CES1 (unknown origin) mediated aztreonam release in 2.5% acetonitrile in 0.05M citrate buffer at 0.5 mg/ml at pH 4.7 at 37degC after 10 mins in presence of 150 units/ml of CES1 enzyme by HPLC analysis; assay type: ADME; conditions: pH 4.7, 10 min
[4] = molecular target: T1, Liver carboxylesterase 1; experiment: Prodrug conversion assessed as CES1 (unknown origin) mediated aztreonam release in 2.5% acetonitrile in 0.05M citrate buffer at 0.5 mg/ml at pH 4.7 at 37degC after 20 mins in presence of 150 units/ml of CES1 enzyme by HPLC analysis; assay type: ADME; conditions: pH 4.7, 20 min
[5] = molecular target: T1, Liver carboxylesterase 1; experiment: Prodrug conversion assessed as CES1 (unknown origin) mediated aztreonam release in 2.5% acetonitrile in 0.05M citrate buffer at 0.5 mg/ml at pH 4.7 at 37degC after 30 mins in presence of 150 units/ml of CES1 enzyme by HPLC analysis; assay type: ADME; conditions: pH 4.7, 0.5 h
[6] = molecular target: T1, Liver carboxylesterase 1; experiment: Prodrug conversion assessed as CES1 (unknown origin) mediated aztreonam release in 2.5% acetonitrile in 0.05M citrate buffer at 0.5 mg/ml at pH 4.7 at 37degC measured immediately in presence of 150 units/ml of CES1 enzyme by HPLC analysis; assay type: ADME; conditions: BLD = below limit of detection
[7] = molecular target: T1, Liver carboxylesterase 1; experiment: Prodrug conversion assessed as CES1 (unknown origin) mediated aztreonam and beta-lactam ring-opened prodrug intermediate release in 2.5% acetonitrile in 0.05M citrate buffer at 0.5 mg/ml at pH 4.7 at 37degC in presence of CES1 at lower concentration by HPLC analysis; assay type: ADME
[8] = Stability of the compound in 2.5% acetonitrile in 0.05M citrate buffer assessed as aztreonam and beta-lactam ring-opened prodrug intermediate release at 0.5 mg/ml at pH 4.7 at 37degC by HPLC analysis; assay type: physicochemical
[9] = molecular target: T1, Liver carboxylesterase 1; experiment: Prodrug conversion assessed as CES1 (unknown origin) mediated aztreonam release in 2.5% acetonitrile in 0.05M citrate buffer at 0.5 mg/ml at pH 4.7 at 37degC after 1 min in presence of 150 units/ml of CES1 enzyme by HPLC analysis; assay type: ADME; conditions: pH 4.7, 1 min, BLD = below limit of detection
[10] = Oral bioavailability in human at 500 mg administered as solution measured 16 hrs post dosing; assay type: ADME, organism-based; conditions: in vivo
[11] = Oral bioavailability in human at 500 mg administered twice as 250 mg tablet formulation measured 16 hrs post dose; assay type: ADME, organism-based; conditions: in vivo

Structure (SMILES) | Drug metabolism [1] [%] | Drug metabolism [2] [%] | Drug metabolism [3] [%] | Drug metabolism [4] [%] | Drug metabolism [5] [%] | Drug metabolism [6] | Drug metabolism [7] | Stability [8] | Drug metabolism [9] | bioavailability [10] [%] | bioavailability [11] [%]
CCOC(=O)CCC(C)(C)COS(=O)(=O)N1C(=O)[C@@H](NC(=O)/C(=N\OC(C)(C)C(=O)O)c2csc(N)n2)[C@@H]1C.O=C(O)C(F)(F)F | 45 | 76 | 86 | 90 | 90 | Bld | Metabolite_Detected | Unstable | – | – | –
CCOC(=O)C(C)(C)COS(=O)(=O)N1C(=O)[C@@H](NC(=O)/C(=N\OC(C)(C)C(=O)O)c2csc(N)n2)[C@@H]1C.O=C(O)C(F)(F)F | 4 | 8 | 14 | 23 | 28 | Bld | Metabolite_Detected | Unstable | Bld | – | –
C[C@H]1[C@H](NC(=O)/C(=N\OC(C)(C)C(=O)O)c2csc(N)n2)C(=O)N1S(=O)(=O)OCC(C)(C)CCOC(=O)C(C)(C)C.O=C(O)C(F)(F)F | > 95 | > 95 | > 95 | > 95 | > 95 | Bld | Metabolite_Detected | Unstable | – | – | –
C[C@H]1[C@H](NC(=O)/C(=N\OC(C)(C)C(=O)O)c2csc(N)n2)C(=O)N1S(=O)(=O)O [AZTREONAM] | – | – | – | – | – | – | – | – | – | < 1 | < 1
